The text below walks through data of patent US20220048895A1, “SUBSTITUTED BENZAZEPINE COMPOUNDS, CONJUGATES, AND USES THEREOF” (SILVERBACK THERAPEUTICS, INC., priority 2018, published 2022).

The subject of this assay is Human peripheral blood mononuclear cells (PBMC). Put plainly: PBMC screening assay: TNF-α in supernatant by ELISA or HTRF. The class given is cell-based. The settings on record: TNF-α activity in supernatant of human PBMC, 24 hours incubation, 1000 to 0.000238 nM. The method, then:
Materials and general procedures. Human peripheral blood mononuclear cells (PBMC) were obtained from BenTek, frozen at 25×10^6 cell/mL in 10% DMSO (Sigma) prepared in fetal bovine serum (Gibco) and stored in liquid nitrogen. For the culture, PBMC were thawed quickly in a 37° C. water bath and diluted into pre-warmed RPMI 1640 (Lonza) supplemented with 10% fetal bovine serum, 2 mM glutamine, […] (all from Gibco) and centrifuged for 5 minutes at 500×g. PBMC were suspended into the growth media described above and cultured at a concentration of 1×10^6 cells per mL at 37° C. in a 5% CO2 incubator.
General procedure for in vitro small molecule screening. PBMC were thawed, suspended at a concentration of 1×10^6 cell/mL in growth media and 200 μL was aliquoted into each well of a 96-well plate for a total of 0.2×10^6 cells per well. PBMC were incubated for approximately 16-18 hours at 37° C. in a 5% CO2 humidified incubator. PBMC plates were centrifuged at 500×g for 5 minutes and the growth media was removed. 150 μL of twelve concentrations ranging from 1000 to 0.000238 nM of small molecules prepared in growth media were added to PBMC in duplicate and incubated for 24 hours at 37° C. in a 5% CO2 incubator. Prior to supernatant harvest, cells were spun at 500×g for 5 minutes to remove cell debris. TNF-α activity was assessed in the supernatant by ELISA (eBioscience) or HTRF (CisBio) per the manufacturer's instructions. The optical density at 450 nm and 570 nm (ELISA) or […] (HTRF) was analyzed using an Envision (Perkin Elmer) plate reader, as shown in Table 2.
Broadly, the EC50 is the midpoint of the concentration-response curve. Read a high EC50 as a need for much substance. The molecule `CCCN(CCC)C(=O)C1=Cc2ccc(-c3ccc(C(=O)N4CCCC4c4ccccc4)cc3)cc2N=C(N)C1` (centres unmarked) [Compound 1.10, 2-amino-8-(4-(2-phenylpyrrolidine-1-carbonyl)phenyl)-N,N-dipropyl-3H-benzo[b]azepine-4-carboxamide] registered an EC50 of 50 to 500 nM.

`CCCN(CCC)C(=O)C1=Cc2ccc(-c3ccc(C(=O)N4CCCC(CO)C4)cc3)cc2N=C(N)C1` (centres unmarked) [Compound 1.6, 2-amino-8-(4-(3-(hydroxymethyl)piperidine-1-carbonyl)phenyl)-N,N-dipropyl-3H-benzo[b]azepine-4-carboxamide] had an EC50 of 50 to 500 nM.

As to `CCCN(CCC)C(=O)C1=Cc2ccc(-c3ccc(C(=O)N4CCN(c5ccccc5)CC4)cc3)cc2N=C(N)C1` [Compound 1.4, 2-amino-8-(4-(4-phenylpiperazine-1-carbonyl)phenyl)-N,N-dipropyl-3H-benzo[b]azepine-4-carboxamide], the EC50 fell in the range of 50 to 500 nM.

`CCCN(CCC)C(=O)C1=Cc2ccc(-c3ccc(C(=O)N4CCc5ccccc5C4)cc3)cc2N=C(N)C1` [Compound 1.8, 2-amino-N,N-dipropyl-8-(4-(1,2,3,4-tetrahydroisoquinoline-2-carbonyl)phenyl)-3H-benzo[b]azepine-4-carboxamide] returned a concentration for a half-maximal effect (EC50) greater than 500 nM.

Consider `CCCN(CCC)C(=O)C1=Cc2ccc(-c3ccc(C(=O)N4CCC(O)(c5ccccc5)C4)cc3)cc2N=C(N)C1` (centres unmarked) [Compound 1.9, 2-amino-8-(4-(3-hydroxy-3-phenylpyrrolidine-1-carbonyl)phenyl)-N,N-dipropyl-3H-benzo[b]azepine-4-carboxamide], for which the EC50 was 50 to 500 nM.

For the molecule `CCCN(CCC)C(=O)C1=Cc2ccc(-c3ccc(C(=O)N4CCCC4CO)cc3)cc2N=C(N)C1` (centres unmarked) [Compound 1.11, 2-amino-8-(4-(2-(hydroxymethyl)pyrrolidine-1-carbonyl)phenyl)-N,N-dipropyl-3H-benzo[b]azepine-4-carboxamide], the half-maximal effective concentration (EC50) fell in the range of 50 to 500 nM.

`CCCN(CCC)C(=O)C1=Cc2ccc(-c3ccc(C(=O)N4CCNC(c5ccccc5)C4)cc3)cc2N=C(N)C1` (centres unmarked) [Compound 1.1, 2-amino-8-(4-(3-phenylpiperazine-1-carbonyl)phenyl)-N,N-dipropyl-3H-benzo[b]azepine-4-carboxamide] had an EC50 of less than 50 nM.

Consider `CCCN(CCC)C(=O)C1=Cc2ccc(-c3ccc(C(=O)N4CCN[C@H](c5ccccc5)C4)cc3)cc2N=C(N)C1` [Compound 1.2, (R)-2-amino-8-(4-(3-phenylpiperazine-1-carbonyl)phenyl)-N,N-dipropyl-3H-benzo[b]azepine-4-carboxamide], for which the EC50 is less than 50 nM.

In turn, `CCCN(CCC)C(=O)C1=Cc2ccc(-c3ccc(C(=O)N4CCN[C@@H](c5ccccc5)C4)cc3)cc2N=C(N)C1` [Compound 1.3, (S)-2-amino-8-(4-(3-phenylpiperazine-1-carbonyl)phenyl)-N,N-dipropyl-3H-benzo[b]azepine-4-carboxamide] came in with an EC50 of less than 50 nM.

Consider `CCCN(CCC)C(=O)C1=Cc2ccc(-c3ccc(C(=O)N4CCC(O)(c5ccccc5)CC4)cc3)cc2N=C(N)C1` [Compound 1.5, 2-amino-8-(4-(4-hydroxy-4-phenylpiperidine-1-carbonyl)phenyl)-N,N-dipropyl-3H-benzo[b]azepine-4-carboxamide], for which the concentration for a half-maximal effect (EC50) is 50 to 500 nM.

Molecule `CCCN(CCC)C(=O)C1=Cc2ccc(-c3ccc(C(=O)N4CCC(CO)(c5ccccc5)CC4)cc3)cc2N=C(N)C1` [Compound 1.7, 2-amino-8-(4-(4-(hydroxymethyl)-4-phenylpiperidine-1-carbonyl)phenyl)-N,N-dipropyl-3H-benzo[b]azepine-4-carboxamide] gave a concentration giving a half-maximal response (EC50) greater than 500 nM.
